# Data: the OPERA property sets (Mansouri et al. 2018)
SMILES,solubility (25 °C) [mM],solubility (20 °C) [mM],other results
CCOCCOC(=O)CCCCC(=O)OCCOCC,–,–,solubility: 8.61 mM
O=c1cc(Br)c2ccccc2o1,–,–,solubility: 22.2 mM
CC(Cl)C(C)(C)O (stereo not drawn),510,–,–
O=C(Nc1ccccn1)c1cccnc1,1.05,–,–
CCCCCCCCCCCCCCCCNC(=O)C(C)O (stereo not drawn),0.223,–,–
O=Cc1ccc(O)c(C(=O)O)c1,2.32,–,–
CC1(c2ccccc2)C(=O)NC(=O)NC1=O,–,3.48,–
CC(C)C1OCC2(CO1)COC(C(C)C)OC2 (stereo not drawn),0.769,–,–
COc1ccc2c(c1)Sc1ccc(Cl)cc1N2,–,0.0105,–
COC(C)C(C)Cl (stereo not drawn),–,–,solubility (30 °C): 10 mM
NC(=O)NC(Cc1ccccc1)C(=O)O (racemic),–,8.02,–
OCc1ccc(Cl)cc1Cl,–,5.65,–
C=CC1=C(C)C(=Cc2[nH]c(Cc3[nH]c(C=C4NC(=O)C(C)=C4C=C)c(C)c3CCC(=O)O)c(CCC(=O)O)c2C)NC1=O,0.0154,–,–
Cc1cc(C)c(OCC(=O)O)c(Br)c1,–,0.753,–
O=C(O)Cc1cc(O)ccc1O,5050,–,–
O=C(NCCO)c1cc(O)ccc1O,286,–,–
OCc1ccccc1CO,1140,–,–
O=C(CCCCC(=O)NCCO)NCCO,–,2580,–
CC1(C)C2CCC1(C)C(N)(C(=O)O)C2 (stereo not drawn),–,25.3,–
C[C@H](Nc1ccccc1Cl)C(=O)O (racemic),–,–,solubility (30 °C): 4.71 mM
O=C(O)CCCCc1ccccc1,3.42,–,–

SMILES,solubility (25 °C) [mM],solubility (20 °C) [mM],other results
NC(CC(=O)O)c1cccc2ccccc12 (stereo not drawn),–,–,solubility: 25.7 mM
CC(NC(N)=O)C(=O)O (stereo not drawn),–,133,–
CCOC(CC(C)O)OCC (stereo not drawn),–,–,solubility: 1230 mM
Cc1ccc(OCC(=O)O)cc1,–,7.22,–
CCOCCC(=O)OC,847,–,–
CCCCCCCCCCCNC(=O)c1cccnc1,0.941,–,–
CCCCOC(=O)CCOC,–,–,solubility: 61.2 mM
O=c1[nH]c2cncnc2[nH]1,–,30.6,–
CC(C)CCOCC(O)COCCC(C)C,–,–,solubility: 43 mM
Cc1nc(C)c(C(=O)O)cc1C(=O)O,–,1.55,–
O=C(O)C(S)CCC(S)C(=O)O (stereo not drawn),3.34,–,–
C[Si](C)(C)CCCN,11.2,–,–
CC(C#N)(CCC(=O)O)/N=N/C(C)(C#N)CCC(=O)O (stereo not drawn),–,9.81,–
COc1cc2nccnc2c(N)c1OC,–,–,solubility (22 °C): 19.5 mM
COc1c(C(=O)O)cc(C(=O)O)cc1C(=O)O,–,29.1,–
O=C(O)C1(O)CCCCC1,–,–,solubility: 465 mM
CCOC(=O)c1cccnc1,370,–,–
CC(=O)NCC(=O)Nc1ccccc1,–,27.1,–
NC(N)=Nc1nc2ccccc2s1,–,3.62,–
CCCC(=O)N(C)N=O,29.2,–,–
Nc1ncc2[nH]cnc2n1,–,61.7,–

SMILES,solubility (25 °C) [mM],solubility (20 °C) [mM],other results
O=c1ncc2[nH]cnc2[nH]1,–,19.3,–
COc1ccc(NC(=N)Nc2ccc(OC)cc2)cc1,–,–,solubility: 1.84 mM
O=C1OCc2ccc3ccccc3c21,–,–,solubility: 0.494 mM
CC(=O)C(=O)Nc1ccccc1,–,–,solubility: 42.9 mM
CCC(C)(C)C1CCC(=NO)C(=NO)C1 (stereo not drawn),0.108,–,–
CCCCCCNC(=O)c1cccnc1,3.01,–,–
O=c1ccccc(Br)c1O,3.67,–,–
O=S(=O)(O)c1ncc[nH]1,–,–,solubility: 844 mM
Cc1cc(O)c(Cc2ccccc2)c(C)c1Cl,0.05,–,–
O=[N+]([O-])c1ccc(O)c([N+](=O)[O-])c1-c1ccccc1,0.192,–,–
CCOCCOC(=O)CCCCCCCCC(=O)OCCOCC,–,–,solubility: 0.635 mM
Cc1nnc(N)nc1C,80.6,–,–
CC(=O)c1cccs1,–,–,solubility (30 °C): 111 mM
CNCCC(=O)O,–,–,solubility: 882 mM
O=C(O)C=C(CC(=O)O)C(=O)O,–,2450,–
c1cn[nH]c1,285,–,–
O=C(O)C=C(Br)Br,–,146,–
CCCCOC(=O)C(C)OC(C)=O (stereo not drawn),176,–,–
NC(=O)C[C@H](NC(N)=O)C(=O)O,–,–,solubility (23 °C): 308 mM
CCCCCCP(=O)(OCC)OCC,2.7,–,–
NC(=S)SCC(=O)O,–,–,solubility: 179 mM

SMILES,solubility (25 °C) [mM],solubility (20 °C) [mM],other results
CC(C)OC(=O)c1c(C(=O)O)cccc1[N+](=O)[O-],–,3.24,–
CCC(NC(=N)N)C(=O)O (stereo not drawn),–,–,solubility: 138 mM
CCC1(CC)C(=O)NC(=O)N=C1N,–,40.1,–
NNC(=O)CC(=O)NN,757,–,–
FC(F)(F)c1nc2ncncc2[nH]1,–,354,–
NC(=O)OC(CCl)CCl,43.6,–,–
CC(C)CCOCC(O)CO (stereo not drawn),–,–,solubility: 61.6 mM
CC(NCCC#N)C(=O)O (stereo not drawn),985,–,–
O=C(O)CCCCCCNS(=O)(=O)c1ccccc1,8.97,–,–
Cc1cc(C(O)(c2ccc(N)cc2)c2ccc(N)cc2)ccc1N,–,0.939,–
CS(=O)(=O)NS(C)(=O)=O,–,–,solubility (30 °C): 1100 mM
OCC1=C[C@@H](O)[C@@H]2C=CO[C@@H](OC3OC(CO)C(O)C(O)C3O)[C@H]12 (stereo partly drawn),–,1030,–
CCCCOP(=O)(OCC)OCCCC,14.3,–,–
CSc1ncccn1,396,–,–
CCCOC(=O)CO[N+](=O)[O-],–,–,solubility (30 °C): 11 mM
NC(=O)N/N=C/[C@H](O)[C@@H](O)[C@H](O)CO,–,743,–
CCOC(=O)c1[nH]c(C)cc1C,–,2.39,–
CCOc1ccc(C(=O)O)c2ccccc12,0.0772,–,–
O=C(S)CCCCC(=O)S,–,–,solubility (26 °C): 18.5 mM
CCc1c[nH]c(=O)nc1N,95.6,–,–
